pIC50: −log10 of the molar value.
target: Recombinant human cathepsin S (CatS) (Homo sapiens, UniProt P25774); experiment: Recombinant human cathepsin S (CatS) inhibition assay, fluorogenic substrate Z-Valine-Valine-Arginine-AMC; details: not given;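 also: Baculovirus-expressed CatS in pH 5.0 sodium acetate buffer with DTT and NaCl, fluorescence read each minute over 20 min, inhibition derived from rate slope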
Sequence (P25774 115-331): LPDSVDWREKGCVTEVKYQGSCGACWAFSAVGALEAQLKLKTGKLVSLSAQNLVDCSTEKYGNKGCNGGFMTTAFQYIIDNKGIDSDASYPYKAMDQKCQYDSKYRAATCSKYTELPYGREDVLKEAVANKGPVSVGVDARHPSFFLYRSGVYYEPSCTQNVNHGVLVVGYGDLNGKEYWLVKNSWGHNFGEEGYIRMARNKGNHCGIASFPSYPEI

SMILES | pIC50
CS(=O)(=O)N1CCc2c(c(-c3ccc(Cl)c(C#Cc4ccc(CCCC(=O)O)cc4)c3)nn2CCCN2CCOCC2)C1 [Example 8, 4-(4-{2-Chloro-5-[5-methanesulfonyl-1-(3-morpholin-4-yl-propyl)-4,5,6,7-tetrahydro-1H-pyrazolo[4,3-c]pyridin-3-yl]-phenylethynyl}-phenyl)-butyric acid] | 6.72
CS(=O)(=O)N1CCc2c(c(-c3ccc(Cl)c(C#Cc4ccc(CNCc5ccc(Cl)cc5)cc4)c3)nn2CCCN2CCC(F)CC2)C1 [Example 358, 1-{4-[(2-Chloro-5-{1-[3-(4-fluoropiperidin-1-yl)propyl]-5-(methylsulfonyl)-4,5,6,7-tetrahydro-1H-pyrazolo[4,3-c]pyridin-3-yl}phenyl)ethynyl]phenyl}-N-[(4-chlorophenyl)methyl]methanamine] | 7.00
COC(=O)Cc1cccc(C#Cc2cc(-c3nn(CCCN4CCOCC4)c4c3CN(S(C)(=O)=O)CC4)ccc2Cl)c1 [Example 11, (3-{2-Chloro-5-[5-methanesulfonyl-1-(3-morpholin-4-yl-propyl)-4,5,6,7-tetrahydro-1H-pyrazolo[4,3-c]pyridin-3-yl]-phenylethynyl}-phenyl)-acetic acid methyl ester] | 5.59
CCN(CC)CC#Cc1cc(-c2nn(CCCN3CCOCC3)c3c2CN(S(C)(=O)=O)CC3)ccc1Cl [Example 49, (3-{2-Chloro-5-[5-methanesulfonyl-1-(3-morpholin-4-yl-propyl)-4,5,6,7-tetrahydro-1H-pyrazolo[4,3-c]pyridin-3-yl]-phenyl}-prop-2-ynyl)-diethyl-amine] | 4.71
NC(=O)N1CCc2c(c(-c3ccc(Cl)c(C#Cc4ccc(CNCc5ccc(Cl)cc5)cc4)c3)nn2C[C@@H](O)CN2CCSCC2)C1 [Example 251, (S)-3-(4-Chloro-3-{4-[(4-chloro-benzylamino)-methyl]-phenylethynyl}-phenyl)-1-(2-hydroxy-3-thiomorpholin-4-yl-propyl)-1,4,6,7-tetrahydro-pyrazolo[4,3-c]pyridine-5-carboxylic acid amide] | 7.40
COc1cccc(S(=O)(=O)NCCCc2cc(-c3nn(CCCN4CCC(N5CCCC5=O)CC4)c4c3CN(S(C)(=O)=O)CC4)ccc2Cl)c1 [Example 93, N-{3-[2-Chloro-5-(5-methanesulfonyl-1-{3-[4-(2-oxo-pyrrolidin-1-yl)-piperidin-1-yl]-propyl}-4,5,6,7-tetrahydro-1H-pyrazolo[4,3-c]pyridin-3-yl)-phenyl]-propyl}-3-methoxy-benzenesulfonamide] | 5.98
NC(=O)C(=O)N1CCc2c(c(-c3ccc(Cl)c(C#Cc4ccc(Cl)c(C(=O)NCC5CCCNC5)c4)c3)nn2CCCN2CCSCC2)C1 (centres unmarked) [Example 579, 5-[(5-{5-[Amino(oxo)acetyl]-1-(3-thiomorpholin-4-ylpropyl)-4,5,6,7-tetrahydro-1H-pyrazolo[4,3-c]pyridin-3-yl}-2-chlorophenyl)ethynyl]-2-chloro-N-(piperidin-3-ylmethyl)benzamide] | 7.70
CS(=O)(=O)N1CCc2c(c(-c3ccc(Cl)c(C#Cc4ccc(Cl)cc4)c3)nn2CC(O)CN2CCNCC2)C1 (centres unmarked) [Example 132, 1-{3-[4-Chloro-3-(4-chloro-phenylethynyl)-phenyl]-5-methanesulfonyl-4,5,6,7-tetrahydro-pyrazolo[4,3-c]pyridin-1-yl}-3-piperazin-1-yl-propan-2-ol] | 6.41
CS(=O)(=O)N1CCc2c(c(-c3ccc(Cl)c(C#Cc4ccc(CNCc5ccc(Cl)cc5)cc4)c3)nn2CCCN2CCC(c3ccccn3)CC2)C1 [Example 177, 1-{4-[(2-Chloro-5-{5-(methylsulfonyl)-1-[3-(4-pyridin-2-ylpiperidin-1-yl)propyl]-4,5,6,7-tetrahydro-1H-pyrazolo[4,3-c]pyridin-3-yl}phenyl)ethynyl]phenyl}-N-[(4-chlorophenyl)methyl]methanamine] | 8.00
CC1COCCN1CCCn1nc(-c2ccc(Cl)c(C#Cc3ccc(Cl)c(CNCC4CCCO4)c3)c2)c2c1CCN(C(N)=O)C2 (stereo in doubt) [Example 223, 3-{4-Chloro-3-[(4-chloro-3-{[(tetrahydrofuran-2-ylmethyl)amino]methyl}phenyl)ethynyl]phenyl}-1-{3-[(3S)-3-methylmorpholin-4-yl]propyl}-1,4,6,7-tetrahydro-5H-pyrazolo[4,3-c]pyridine-5-carboxamide] | 7.70

same assay, conditions: CatS IC50

SMILES | pIC50
CS(=O)(=O)N1CCc2c(c(-c3ccc(Cl)c(C#Cc4ccc(CNC5CCCCC5)cc4)c3)nn2CCCN2CCOCC2)C1 [Example 326, N-{[4-({2-Chloro-5-[5-(methylsulfonyl)-1-(3-morpholin-4-ylpropyl)-4,5,6,7-tetrahydro-1H-pyrazolo[4,3-c]pyridin-3-yl]phenyl}ethynyl)phenyl]methyl}cyclohexanamine] | 5.86
C[C@H]1COCCN1CCCn1nc(-c2ccc(Cl)c(C#Cc3ccc4c(c3)CN(C(=O)OC(C)(C)C)CC4)c2)c2c1CCN(S(C)(=O)=O)C2 [Example 467, 1,1-Dimethylethyl 7-({2-chloro-5-[1-{3-[(3S)-3-methylmorpholin-4-yl]propyl}-5-(methylsulfonyl)-4,5,6,7-tetrahydro-1H-pyrazolo[4,3-c]pyridin-3-yl]phenyl}ethynyl)-3,4-dihydroisoquinoline-2(1H)-carboxylate] | 6.59
CC(=O)OCC(=O)N1CCc2c(c(-c3ccc(Cl)c(C#Cc4ccc(Cl)cc4)c3)nn2CCCN2CCOCC2)C1 [Example 142, Acetic acid 2-[3-[4-chloro-3-(4-chloro-phenylethynyl)-phenyl]-1-(3-morpholin-4-yl-propyl)-1,4,6,7-tetrahydro-pyrazolo[4,3-c]pyridin-5-yl]-2-oxo-ethyl ester] | 6.55
NC(=O)N1CCc2c(c(-c3ccc(Cl)c(C#Cc4ccc(CNCc5ccc(Cl)cc5)cc4)c3)nn2C[C@H](O)CN2CCSCC2)C1 [Example 252, (R)-3-(4-Chloro-3-{4-[(4-chloro-benzylamino)-methyl]-phenylethynyl}-phenyl)-1-(2-hydroxy-3-thiomorpholin-4-yl-propyl)-1,4,6,7-tetrahydro-pyrazolo[4,3-c]pyridine-5-carboxylic acid amide] | 6.96
C[C@H]1COCCN1CCCn1nc(-c2ccc(Cl)c(C#Cc3ccc(CNCc4ccc(Cl)cc4)cc3)c2)c2c1CCN(C(N)=O)C2 [Example 401, 3-(4-Chloro-3-{[4-({[(4-chlorophenyl)methyl]amino}methyl)phenyl]ethynyl}phenyl)-1-{3-[(3S)-3-methylmorpholin-4-yl]propyl}-1,4,6,7-tetrahydro-5H-pyrazolo[4,3-c]pyridine-5-carboxamide] | 6.96
C[C@H]1COCCN1CCCn1nc(-c2ccc(Cl)c(C#Cc3ccc(Cl)c(CN4CCOCC4)c3)c2)c2c1CCN(C(=O)C(N)=O)C2 [Example 588, 2-[3-(4-Chloro-3-{[4-chloro-3-(morpholin-4-ylmethyl)phenyl]ethynyl}phenyl)-1-{3-[(3S)-3-methylmorpholin-4-yl]propyl}-1,4,6,7-tetrahydro-5H-pyrazolo[4,3-c]pyridin-5-yl]-2-oxoacetamide] | 7.40
CS(=O)(=O)N1CCc2c(c(-c3ccc(Cl)c(C#Cc4ccc(CNCc5cccs5)cc4)c3)nn2CCCN2CCOCC2)C1 [Example 421, 1-[4-({2-Chloro-5-[5-(methylsulfonyl)-1-(3-morpholin-4-ylpropyl)-4,5,6,7-tetrahydro-1H-pyrazolo[4,3-c]pyridin-3-yl]phenyl}ethynyl)phenyl]-N-(2-thienylmethyl)methanamine] | 6.72
NC(=O)N1CCc2c(c(-c3ccc(Cl)c(C#Cc4ccc(CNCc5ccc(N)cc5)cc4)c3)nn2CCCN2CCSCC2)C1 [Example 551, 3-(3-{[4-({[(4-Aminophenyl)methyl]amino}methyl)phenyl]ethynyl}-4-chlorophenyl)-1-(3-thiomorpholin-4-ylpropyl)-1,4,6,7-tetrahydro-5H-pyrazolo[4,3-c]pyridine-5-carboxamide] | 7.00
CS(=O)(=O)N1CCc2c(c(-c3ccc(Cl)c(C#Cc4ccc(CNC5CC5)cc4)c3)nn2CCCN2CCOCC2)C1 [Example 323, N-{[4-({2-Chloro-5-[5-(methylsulfonyl)-1-(3-morpholin-4-ylpropyl)-4,5,6,7-tetrahydro-1H-pyrazolo[4,3-c]pyridin-3-yl]phenyl}ethynyl)phenyl]methyl}cyclopropanamine] | 6.12
CN1CCN(C(=O)[C@@H]2Cc3ccc(C#Cc4cc(-c5nn(CCCN6CCOCC6)c6c5CN(S(C)(=O)=O)CC6)ccc4Cl)cc3CN2)CC1 [Example 485, (3S)-7-({2-Chloro-5-[5-(methylsulfonyl)-1-(3-morpholin-4-ylpropyl)-4,5,6,7-tetrahydro-1H-pyrazolo[4,3-c]pyridin-3-yl]phenyl}ethynyl)-3-[(4-methylpiperazin-1-yl)carbonyl]-1,2,3,4-tetrahydroisoquinoline] | 7.30
CS(=O)(=O)N1CCc2c(c(-c3ccc(Cl)c(C#Cc4ccc(CN5CCc6ccccc6C5)cc4)c3)nn2CCCN2CCOCC2)C1 [Example 442, 2-{[4-({2-Chloro-5-[5-(methylsulfonyl)-1-(3-morpholin-4-ylpropyl)-4,5,6,7-tetrahydro-1H-pyrazolo[4,3-c]pyridin-3-yl]phenyl}ethynyl)phenyl]methyl}-1,2,3,4-tetrahydroisoquinoline] | 6.52
CS(=O)(=O)N1CCc2c(c(-c3ccc(Cl)c(C#Cc4cccc(CNCC(=O)O)c4)c3)nn2CCCN2CCOCC2)C1 [Example 189, N-{[3-({2-Chloro-5-[5-(methylsulfonyl)-1-(3-morpholin-4-ylpropyl)-4,5,6,7-tetrahydro-1H-pyrazolo[4,3-c]pyridin-3-yl]phenyl}ethynyl)phenyl]methyl}glycine] | 6.85
CC(C)CNCc1cccc(C#Cc2cc(-c3nn(CCCN4CCOCC4)c4c3CN(S(C)(=O)=O)CC4)ccc2Cl)c1 [Example 520, N-{[3-({2-Chloro-5-[5-(methylsulfonyl)-1-(3-morpholin-4-ylpropyl)-4,5,6,7-tetrahydro-1H-pyrazolo[4,3-c]pyridin-3-yl]phenyl}ethynyl)phenyl]methyl}-2-methylpropan-1-amine] | 6.36
